Measured values taken from patent US5684013A, “Tricyclic compounds useful for inhibition of g-protein function and for treatment of proliferative diseases” (Schering Corporation, priority 1995, dated 1997).
Read-outs that look alike come from different tables or passages of the source.

Experiments:
[1] = molecular target: T1, geranylgeranyl protein transferase (GGPT) I (Rattus norvegicus, UniProt P53610+Q04631); test: In vitro enzyme assay: inhibition of geranylgeranyl protein transferase (GGPT) I, Ras-CVLL as acceptor; format: biochemical
T1 construct: were partially purified from rat brain by ammonium sulfate fractionation; from tissue; host or cells: rat brain
Excerpt: (§1) 1. In vitro enzyme assays: Inhibition of farnesyl protein transferase and geranylgeranyl protein transferase.
Both farnesyl protein transferase (FPT) and geranylgeranyl protein transferase (GGPT) I were partially purified from rat brain by ammonium sulfate fractionation followed by Q-Sepharose (Pharmacia, Inc.) anion exchange chromatography essentially as described by Yokoyama et al (Yokoyama, K., et al., (1991), A protein geranylgeranyltransferase from bovine brain: Implications for protein prenylation specificity, Proc. Natl. Acad. Sci USA 88: 5302-5306, the disclosure of which is incorporated herein by reference thereto). Human farnesyl protein transferase was also expressed in E. coli, using cDNA clones encoding both the a and b subunits. The methods used were similar to those published (Omer, C. et al., (1993), Characterization of recombinant human farnesyl protein transferase: Cloning, expression, farnesyl diphosphate binding, and functional homology with yeast prenyl-protein transferases, Biochemistry 32:5167-5176). Human farnesyl protein transferase was partially-purified from the soluble protein fraction of E. coli as described above. the tricyclic farnesyl protein transferase inhibitors disclosed herein inhibited both human and rat enzyme with similar potencies. […]

[2] = molecular target: T2, farnesyl protein transferase (FPT) (Rattus norvegicus, UniProt Q02293+Q04631); test: In vitro enzyme assay: inhibition of farnesyl protein transferase (FPT), Ras-CVLS farnesylation; format: biochemical
T2 construct: were partially purified from rat brain by ammonium sulfate fractionation; from tissue; host or cells: rat brain
Excerpt: as §1
Both farnesyl protein transferase (FPT) and geranylgeranyl protein transferase (GGPT) I were partially purified from rat brain by ammonium sulfate fractionation followed by Q-Sepharose (Pharmacia, Inc.) anion exchange chromatography essentially as described by Yokoyama et al (Yokoyama, K., et al., (1991), A protein geranylgeranyltransferase from bovine brain: Implications for protein prenylation specificity, Proc. Natl. Acad. Sci USA 88: 5302-5306, the disclosure of which is incorporated herein by reference thereto). Human farnesyl protein transferase was also expressed in E. coli, using cDNA clones encoding both the a and b subunits. The methods used were similar to those published (Omer, C. et al., (1993), Characterization of recombinant human farnesyl protein transferase: Cloning, expression, farnesyl diphosphate binding, and functional homology with yeast prenyl-protein transferases, Biochemistry 32:5167-5176). Human farnesyl protein transferase was partially-purified from the soluble protein fraction of E. coli as described above. the tricyclic farnesyl protein transferase inhibitors disclosed herein inhibited both human and rat enzyme with similar potencies. Two forms of val^12 -Ha-Ras protein were prepared as substrates for these enzymes, differing in their carboxy terminal sequence. One form terminated in cysteine-valine-leucine-serine (Ras-CVLS) the other in cystein-valine-leucine-leucine (Ras-CVLL). Ras-CVLS is a substrate for the farnesyl protein transferase while Ras-CVLL is a substrate for geranylgeranyl protein transferase I. The cDNAs encoding these proteins were constructed so that the proteins contain an amino-terminal extension of 6 histidine residues. Both proteins were expressed in Escherichia coli and purified using metal chelate affinity chromatography. The radiolabelled isoprenyl pyrophosphate substrates, [^3 H]farnesyl pyrophosphate and [^3 H]geranylgeranyl pyrophosphate, were purchased from DuPont/New England Nuclear.
Several methods for measuring farnesyl protein transferase activity have been described (Reiss et al 1990, Cell 62: 81; Schaber et al 1990, J. Biol. Chem. 265: 14701; Manne et al 1990, PNAS 87: 7541; and Barbacid & Manne 1993, U.S. Pat. No. 5,185,248). The activity was assayed by measuring the transfer of [^3 H]farnesyl from [^3 H]farnesyl pyrophosphate to Ras-CVLS using conditions similar to those described by Reiss et al. 1990 (Cell 62: 81) The reaction mixture contained 40 mM Hepes, pH 7.5; 20 mM magnesium chloride; 5 mM dithiothreitol; 0.25 μM [^3 H]farnesyl pyrophosphate; […] Q-Sepharose-purified farnesyl protein transferase; the indicated concentration of tricyclic compound or dimethylsulfoxide (DMSO) vehicle control (5% DMSO final); and […] Ras-CVLS in a total volume of […]. The reaction was allowed to proceed for 30 minutes at room temperature and then stopped with 0.5 ml of 4% sodium dodecyl sulfate (SDS) followed by 0.5 ml of cold 30% trichloracetic acid (TCA). Samples were allowed to sit on ice for 45 minutes and precipitated Ras protein was then collected on GF/C filter paper mats using a Brandel cell harvester. Filter mats were washed once with 6% TCA, 2% SDS and radioactivity was measured in a Wallac 1204 Betaplate BS liquid scintillation counter. Percent inhibition was calculated relative to the DMSO vehicle control.

[3] = system: Normal human HEPM fibroblasts; test: Cell Mat Assay: inhibition of normal cell growth (cell mat); format: cell-based; settings: Fibroblast, mIC50, normal cell monolayer
Method: (§2) Normal human HEPM fibroblasts were planted in 3.5 cm dishes at a density of 5×10^4 cells/dish in 2 ml growth medium, and incubated for 3-5 d to achieve confluence. Medium was aspirated from each dish and the indicator tumor cells, T24-BAG4 human bladder carcinoma cells expressing an activated H-ras gene, were planted on top of the fibroblast monolayer at a density of 2×10^3 cells/dish in 2 ml growth medium, and allowed to attach overnight. Compound-induced colony inhibition was assayed by addition of serial dilutions of compound directly to the growth medium 24 h after tumor cell planting, and incubating cells for an additional 14 d to allow colony formation. Assays were terminated by rinsing monolayers twice with phosphate-buffered saline (PBS), fixing the monolayers with a 1% glutaraldehyde solution in PBS, then visualizing tumor cells by staining with X-Gal (Price, J., et al., Lineage analysis in the vertebrate nervous system by retrovirus-mediated gene transfer, Proc. Natl. Acad. Sci. 84, 156-160(1987)). In the colony inhibition assay, compounds were evaluated on the basis of two IC50 values: the concentration of drug required to prevent the increase in tumor cell number by 50% (tIC50) and the concentration of drug required to reduce the density of cells comprising the cell mat by 50% (mIC50). Both IC50 values were obtained by determining the density of tumor cells and mat cells by visual inspection and enumeration of cells per colony and the number of colonies under the microscope. The therapeutic index of the compound was quantitatively expressed as the ratio of mIC50 /tIC50, with values greater than one indicative of tumor target specificity.

[4] = system: T24-BAG4 human bladder carcinoma cells; test: Cell Mat Assay: inhibition of tumor cell growth; format: cell-based; settings: 336 h, tIC50, 14 d colony formation
Method: as §2

[5] = system: Ras-CVLS processing in COS monkey kidney cells; test: Cell-Based Assay: Ras-CVLS processing in transfected COS monkey kidney cells; settings: Primates, read-out: COS IC50 (inhibition of Ras-CVLS processing)
Excerpt: 2. Cell-Based Assay: Transient expression of val^12 -Ha-Ras-CVLS and val^12 -Ha-Ras-CVLL in COS monkey kidney cells: Effect of farnesyl protein transferase inhibitors on Ras processing and on disordered cell growth induced by transforming Ras.
COS monkey kidney cells were transfected by electroporation with the plasmid pSV-SPORT (Gibco/BRL) containing a cDNA insert encoding either Ras-CVLS or Ras-CVLL, leading to transient overexpression of a Ras substrate for either farnesyl protein transferase or geranylgeranyl protein transferase I, respectively (see above). […]
Membranes were blocked by incubation overnight at 4° C. in PBS containing 2.5% dried milk and 0.5% Tween-20 and then incubated with a Ras-specific monoclonal antibody, Y13-259 (Furth, M. E., et al., (1982), Monoclonal antibodies to the p21 products of the transforming gene of Harvey murine sarcome virus and of the cellular ras gene family, J. Virol. 43: 294-304), in PBS containing 1% fetal calf serum for one hour at room temperature. […] The presence of processed and unprocessed Ras-CVLS or Ras-CVLL was detected using a colorimetric peroxidase reagent (4-chloro-1-naphthol) as described by the manufacturer (Bio-Rad).

[6] = Table 3, comparison of FPT and GGPT inhibition, read-out: ENZYME INHIBITION FPT IC50

| Compound | IC50 ([1]; Table 3, unit printed in the cell) [nM] | IC50 ([2]; Table 2, read-out: FPT IC50) [nM] | IC50 [2, 6] [nM] | IC50 [3] [nM] | IC50 [4] [nM] | IC50 [5] [nM] | IC50 ([1]; Table 3) [nM] |
| --- | --- | --- | --- | --- | --- | --- | --- |
| O=S(=O)(c1ccccc1)N1CCC/C(=C2\c3ccc(Cl)cc3CCc3cccnc32)C1 [Compound E-2E] | 7400 | 710 | 710 | > 50000 | < 3100 | 2500 |  |
| O=S(=O)(c1ccccc1)N1CC/C(=C2\c3ccc(Cl)cc3CCc3cccnc32)C1 [Compound E-2] |  | 590 |  |  |  | > 5000 |  |
| O=S(=O)(c1cccs1)N1CCC/C(=C2\c3ccc(Cl)cc3CCc3cccnc32)C1 [Compound E-1G] |  | < 440 | 470 | > 25000 | 12500 |  | < 13000 |
